According to article PMC4081560 (PLoS ONE, 2014):
“And” between values parts separate entries of the source, which are not always exact repeats. Identical values can stand only once. Like-named read-outs stand apart in the source and are kept apart here. Marks after values point to notes of the source that are not given here.

Key:
Parameters in all cases: species or system DBA/2 mice
Details in all cases: mouse, in vivo
[1] = test system: oseltamivir-resistant K/2785 virus
[2] = test system: oseltamivir-resistant K/2785 virus; remark: listed apart in the source
[3] = test system: oseltamivir-resistant K/2785 virus; remark: listed apart in the source

Row | Structure (SMILES) | MDD ± SD [1] | Survival/total [1] | Synergism (MacSynergy II) [1] [%] | MDD ± SD (mean day of death prior to 14 dpi) [2] | Survival/total [2] | infected mice saved from death [2] | Viral titers in lungs ± SD [3]
1 | NC(=O)c1nc(F)cnc1O [Favipiravir, 6-fluoro-3-hydroxy-2-pyrazinecarboxamide] | 10.6 ± 0.9 days and 10.7 ± 0.6 days and 9.4 ± 0.5 days | 5/10 (50.0%)* and 8/10 (80.0%)*** and 3/10 (30.0%) | 0 | 9.8 ± 0.8 days and 10.0 ± 0.0 days and 11 days | 2/7 (28.6%) and 4/7 (57.1%) and 6/7 (85.7%)** and 7/7 (100.0%)*** | more than 80% | 6.95±0.14 log10(PFU/ml/g) and 5.75±0.19 log10(PFU/ml/g) and 7.31±0.01 log10(PFU/ml/g) and 6.88±0.12 log10(PFU/ml/g)
2 | CCC(CC)[C@H](NC(C)=O)[C@@H]1[C@H](O)[C@@H](C(=O)O)C[C@H]1N=C(N)N [Peramivir] | 9.8 ± 1.5 days and 10.1 ± 1.2 days and 10.6 ± 0.9 days | 0/10 (00.0%) and 2/10 (20.0%) and 5/10 (50.0%)* | 0 | 10.1 ± 1.1 days and 10.2 ± 0.4 days and 10.5 ± 2.1 days and 11.0 ± 1.4 days | 0/7 (0.0%) and 1/7 (14.3%) and 5/7 (71.4%)* |  | 7.34±0.17 log10(PFU/ml/g) and 6.30±0.13 log10(PFU/ml/g) and 7.13±0.09 log10(PFU/ml/g) and 6.29±0.27 log10(PFU/ml/g) and 7.29±0.15 log10(PFU/ml/g) and 6.55±0.14 log10(PFU/ml/g)
